We go through one compound from US5459256A, “Lipophilic, aminohydrolase-activated prodrugs” (priority 1991, dated 1995).

The nature of data set [1]: Toxicity on ATH8 target cells (% toxicity, dye exclusion). The format is cell-based. The following applies: human, ath8 cells, % Toxicity. The procedure:
(§1) HIV Cytopathic Effect Inhibition Assay.
(§2) The HIV cytopathic effect inhibition assay was performed as previously described. […] On day 8 in culture, the viable cells were counted by using the dye exclusion method. All compounds, including inactives, were evaluated a minimum of two times in separate experiments. Data reported in Table II are from representative tests. The % protection against the virus was determined by the following formula: 100 times [(the number of viable cells exposed to HIV-1 and cultured in the presence of the compound minus the number of viable cells exposed to HIV-1 and cultured in the absence of compound) divided by (the number of viable cells cultured alone minus the number of viable cells exposed to HIV-1 and cultured in the absence of the compound)]. The % toxicity of a compound on the target cells was determined by the following formula: 100 times [1 minus (the number of total viable cells cultured in the presence of the compound divided by the number of total viable cells cultured alone)]. Calculated percentages equal to or less than zero are expressed as 0%.

For data set [2], the system named is CD4^+ ATH8 cells. The data set is described as above. The format is cell-based. The following applies: human. The procedure:
as §1, §2

Data set [3] addresses T1, adenosine deaminase (adenosine aminohydrolase, EC 3.5.4.4) (Bos taurus, UniProt P56658).
T1 sequence (P56658 1-363): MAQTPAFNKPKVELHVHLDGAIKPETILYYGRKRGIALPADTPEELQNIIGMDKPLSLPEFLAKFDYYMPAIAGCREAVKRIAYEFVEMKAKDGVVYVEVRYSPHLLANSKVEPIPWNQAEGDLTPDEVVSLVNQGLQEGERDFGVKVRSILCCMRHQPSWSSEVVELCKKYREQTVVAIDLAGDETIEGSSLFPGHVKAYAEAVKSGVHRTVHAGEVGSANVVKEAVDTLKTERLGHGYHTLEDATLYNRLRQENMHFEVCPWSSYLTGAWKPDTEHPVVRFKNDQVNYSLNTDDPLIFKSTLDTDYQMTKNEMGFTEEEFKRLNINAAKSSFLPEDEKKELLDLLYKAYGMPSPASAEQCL
Kind of data set: Enzymatic deamination by adenosine deaminase (HPLC). The procedure:
FIG. 1. Deamination of dideoxyadenosine analogues by adenosine deaminase. Hydrolysis kinetics and 2'-F-dd-ara-I formation during the incubation of 50 μM N^6 -CH3 -2'-F-dd-ara-A (1f) with 0.7 units/mL of adenosine deaminase at 37° C. A unit of adenosine deaminase is the amount of enzyme which hydrolyzes a standard substrate (e.g., adenosine) at the rate of 1.0 μmole/min at 25° C. and pH 7.5. […] Insert: Adenosine deaminase hydrolysis kinetics for 50 μM ddA and 2'-F-dd-ara-A. The hydrolysis curve for ddA has been extrapolated from kinetics obtained with 0.07 units/mL of adenosine deaminase under identical conditions.
A 50 μl aliquot of a 10 mg/ml suspension of adenosine deaminase (adenosine aminohydrolase, EC 3.5.4.4) from calf intestinal mucosa was centrifuged at 600×g for 3 min. The residue remaining after removal of the (NH4)2 SO4 supernatant was dissolved in 0.5 ml pH 7.4 tris(hydroxymethyl)-aminomethane (Tris) buffer to give an enzyme solution of 1 mg/ml (274 units/ml). […] A pH 7.4 buffer was prepared by adjusting 0.01M Tris to pH 7.4 with 0.5N HCl, The 1.0 HCl , HPLC-grade acetonitrile, monobasic potassium phosphate, sodium hydroxide and ultrapure Tris were all commercially available and were used without further purification.
Enzymatic Deamination of Adenosine Analogues. […] A 50 μL aliquot of substrate solution was diluted with 0.95 ml 0.01M Tris buffer in a 1.5-mL Eppendorf tube and equilibrated at 37° C. in a Dubnoff metabolic shaking incubator. Reaction was initiated by addition of 2.5 μL of adenosine deaminase solution (0.7 unit). At specified time intervals, a 50 μL aliquot of the reaction mixture was withdrawn and quenched by mixing with 0.45 mL cold 2 μM 2'-deoxycoformycin. This diluted sample was ultrafiltered to remove enzyme in a Centrifree Micropartition unit by centrifugation at 600×g at 4° C. in a high speed refrigerated centrifuge. The decrease in substrate concentration was monitored by HPLC analysis of the resultant ultrafiltrate (see below). The ability of 2'-deoxycoformycin to inhibit deamination under the above conditions was evaluated by adding 2 μL of 1.0 mM inhibitor to diluted substrate solutions at the time of equilibration. Reaction, sampling and analysis were carried out as above. […] Initial hydrolysis rates for each substrate concentration were measured through linear least-squares curve fitting of the concentration versus time data for reaction of the first 10% of substrate. KM and vmax values for each substrate were then determined from a graphical lineweaver-Burke plot of these initial rates (FIG. 1).
HPLC Analysis of Dideoxypurine Nucleosides.
Concentrations of dideoxynucleosides were measured by the HPLC analysis of 100 μL aliquots of ultrafiltered samples. A 4.6×250 mm 5-μm Ultrasphere-ODS column, protected by a Waters guard column packed with 37-50 μm Vydac 201SC, was eluted with 10-20% CH3 CN in 0.01M pH 7.0 phosphate buffer at a flow rate of 1.0 mL/min. Dideoxynucleosides and deamination products were detected at the appropriate wavelength of maximum absorption with a Gilson 116 variable wavelength detector. Peak identity was determined from coincidence of retention times with standards and by comparison of on-the-fly UV spectra obtained with a Perkin-Elmer LC-235 diode array detector. Peak areas and peak heights were measured simultaneously on a Spectra-Physics SP4200 computing integrator.

The test system of data set [4] is HIV. The following applies: cited from earlier work.

In general, half-life refers to the time needed for the level to fall by half in the phase considered. Low readings indicate fast loss, high ones slow loss. In data set [1], `CNc1ncnc2c1ncn2[C@@H]1O[C@H](CO)C[C@@H]1F` [Compound 1f, N^6 -Methyl-9-(2'3'-dideoxy-2'-fluoro-β-D-arabinofuranosyl)adenine] registered a cytotoxicity at 192 h, 20 µM of 0%. The “% Toxicity” value in data set [2] (11520 min) worked out at 11%; in data set [2] (ath8 cells, 192 h, 5 µM) it was 3%; in data set [2] (ath8 cells, 192 h, 10 µM) it was 7%. In data set [3] (50 μM substrate, pH 7.4 and 37° C., ddA = 100), the “Measured Relative Rate” value came to 0.04. In addition, the “deamination product / product formation (in words)” value in data set [3] (0.7 U/mL ADA, 37° C.) is “the corresponding inosine analogue, 1b, was the product formed”. For the same compound, the half-life at 50 µM in data set [3] (bovine, adenosine deaminase) is 3 h. Also, the vmax in data set [3] (pH 7.4 and 37° C.) is on record as 5.5 × 10^-4 μmol/min/U. Moreover, the “hydrolysis rate, times slower than 1a” value in data set [3] (vs 1a, 0.7 U/mL ADA, 37° C.) worked out at 135 times slower. In addition, the “binding to ADA, times tighter than 1i” value in data set [3] (vs 1i) is recorded as “about 70 times tighter”. Further, the “vmax, times slower than 1i” value in data set [3] (vs 1i) is on record as 50 times slower. Moreover, in data set [3] (vs ddA, 50 μM substrate), the “hydrolysis by ADA, times slower than ddA” value is around 2500 times slower. Besides, in data set [4], the “activity against HIV in peripheral blood mononuclear cells (in words)” value is recorded as “the activity of 1f against HIV in peripheral blood mononuclear cells was recently reported”.
